Data reported in ChEMBL document CHEMBL1201862, “PubChem BioAssay data set” (2004).
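How tested: cells in 96-well plates exposed to compound for 48 hours at five concentrations. The concentration for 50% growth inhibition is given as GI50.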 The source made the active and inactive calls. No stated cut-off is given here; in the data, active = GI50 up to about 1.1 µM and inactive = higher.

How the values were obtained:
Experiment in all cases: DTP human tumour cell line panel, 48 h
[1] = tested on: ACHN
[2] = tested on: CCRF-CEM
[3] = tested on: HT-29
[4] = tested on: Hs-578T
[5] = tested on: LOX IMVI
[6] = tested on: MDA-MB-231
[7] = tested on: MDA-MB-435
[8] = tested on: MDA-N
[9] = tested on: OVCAR-8
[10] = tested on: PC-3
[11] = tested on: SF-295
[12] = tested on: SK-MEL-28
[13] = tested on: SK-MEL-5
[14] = tested on: TK-10
[15] = tested on: CAKI-1
[16] = tested on: M14
[17] = tested on: Malme-3M
[18] = tested on: RPMI-8226
[19] = tested on: SK-MEL-2
[20] = tested on: SF-539

Measured: GI50

CCOC(=O)C1(CO)CSCCSC1
inactive: [1] > 100 µM | [2] > 100 µM | [3] > 100 µM | [4] > 100 µM | [5] > 100 µM | [6] > 100 µM | [7] > 100 µM | [8] > 100 µM | [9] > 100 µM | [10] > 100 µM | [11] > 100 µM | [12] > 100 µM | [13] > 100 µM | [14] > 100 µM

O=C(O)c1cc([N+](=O)[O-])cc2c(=O)c3cnccc3[nH]c12
inactive: [15] > 100 µM | [2] > 100 µM | [3] > 100 µM | [4] > 100 µM | [16] > 100 µM | [6] > 100 µM | [7] > 100 µM | [8] > 100 µM | [17] > 100 µM | [9] > 100 µM | [10] 29.6 µM | [18] > 100 µM | [11] > 100 µM | [12] > 100 µM | [19] > 100 µM | [13] > 100 µM

CSc1nc2c(ncn2C2OC(CO)C(O)C(O)C2O)c(=O)[nH]1 (stereo not drawn)
inactive: [2] > 100 µM | [3] > 100 µM | [5] > 100 µM | [17] > 100 µM | [9] > 100 µM | [18] > 100 µM | [11] 82.2 µM | [20] > 100 µM | [12] > 100 µM | [19] > 100 µM | [13] > 100 µM

O=S(=O)(CF)OCCCCOS(=O)(=O)CF
inactive: [1] 20.4 µM | [15] > 100 µM | [2] 32.2 µM | [3] > 100 µM | [5] 97.1 µM | [16] > 100 µM | [17] > 100 µM | [9] > 100 µM | [18] > 100 µM | [11] > 100 µM | [20] > 100 µM | [12] > 100 µM | [19] > 100 µM | [13] > 100 µM | [14] > 100 µM

CCc1nnc(-c2nsc3ccccc23)s1
inactive: [1] > 100 µM | [2] 42.5 µM | [3] > 100 µM | [5] > 100 µM | [16] > 100 µM | [9] > 100 µM | [18] 45.4 µM | [20] > 100 µM | [12] > 100 µM | [19] > 100 µM | [13] > 100 µM | [14] > 100 µM
